Experimental data as given in PubChem BioAssay (NCI).
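GI50 marks 50% less growth. Definition used: TGI = concentration required for complete inhibition of growth.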

Key:
Experiment in all cases: growth of human tumour cells (NCI), 384-well format
786-0 renal = system: 786-0 renal
A498 renal = system: A498 renal
A549 NSCLC = system: A549 NSCLC
ACHN renal = system: ACHN renal
BT-549 breast = system: BT-549 breast
CAKI-1 renal = system: CAKI-1 renal
CCRF-CEM leukemia = system: CCRF-CEM leukemia
COLO 205 colon = system: COLO 205 colon
DU-145 prostate = system: DU-145 prostate
EKVX NSCLC = system: EKVX NSCLC
HCC-2998 colon = system: HCC-2998 colon
HCT-116 colon = system: HCT-116 colon
HCT-15 colon = system: HCT-15 colon
HL-60(TB) leukemia = system: HL-60(TB) leukemia
HOP-62 NSCLC = system: HOP-62 NSCLC
HOP-92 NSCLC = system: HOP-92 NSCLC
HT29 colon = system: HT29 colon
IGROV1 ovarian = system: IGROV1 ovarian
K-562 leukemia = system: K-562 leukemia
KM12 colon = system: KM12 colon
LOX IMVI melanoma = system: LOX IMVI melanoma
M14 melanoma = system: M14 melanoma
MALME-3M melanoma = system: MALME-3M melanoma
MCF7 breast = system: MCF7 breast
MDA-MB-231 breast = system: MDA-MB-231 breast
MDA-MB-435 melanoma = system: MDA-MB-435 melanoma
MDA-MB-468 breast = system: MDA-MB-468 breast
MOLT-4 leukemia = system: MOLT-4 leukemia
NCI-H226 lung = system: NCI-H226 lung
NCI-H23 lung = system: NCI-H23 lung
NCI-H322M lung = system: NCI-H322M lung
NCI-H460 NSCLC = system: NCI-H460 NSCLC
NCI-H522 lung = system: NCI-H522 lung
NCI/ADR-RES ovarian = system: NCI/ADR-RES ovarian
OVCAR-3 ovarian = system: OVCAR-3 ovarian
OVCAR-4 ovarian = system: OVCAR-4 ovarian
OVCAR-5 ovarian = system: OVCAR-5 ovarian
OVCAR-8 ovarian = system: OVCAR-8 ovarian
PC-3 prostate = system: PC-3 prostate
RPMI-8226 leukemia = system: RPMI-8226 leukemia
RXF 393 renal = system: RXF 393 renal
SF-268 CNS = system: SF-268 CNS
SF-295 CNS = system: SF-295 CNS
SF-539 CNS = system: SF-539 CNS
SK-MEL-2 melanoma = system: SK-MEL-2 melanoma
SK-MEL-28 melanoma = system: SK-MEL-28 melanoma
SK-MEL-5 melanoma = system: SK-MEL-5 melanoma
SK-OV-3 ovarian = system: SK-OV-3 ovarian
SN12C renal = system: SN12C renal
SNB-19 CNS = system: SNB-19 CNS
SNB-75 CNS = system: SNB-75 CNS
SR leukemia = system: SR leukemia
SW-620 colon = system: SW-620 colon
T-47D breast = system: T-47D breast
TK-10 renal = system: TK-10 renal
U251 glioblastoma = system: U251 glioblastoma
UACC-257 melanoma = system: UACC-257 melanoma
UACC-62 melanoma = system: UACC-62 melanoma
UO-31 renal = system: UO-31 renal

## CC(C)Oc1ccc(-c2nn([C@@H](C)c3oc4ccc(F)cc4c(=O)c3-c3cccc(F)c3)c3ncnc(N)c23)cc1F
786-0 renal
  GI50: 26.2 µM
  TGI: > 100 µM
A498 renal
  GI50: 8.65 µM
  TGI: > 100 µM
A549 NSCLC
  GI50: 11.1 µM
  TGI: > 100 µM
ACHN renal
  GI50: > 86.8 µM
  TGI: > 100 µM
BT-549 breast
  GI50: 10.3 µM
  TGI: > 100 µM
CAKI-1 renal
  GI50: > 100 µM
  TGI: > 100 µM
CCRF-CEM leukemia
  GI50: 3.62 µM
  TGI: > 83.9 µM
COLO 205 colon
  GI50: > 100 µM
  TGI: > 100 µM
DU-145 prostate
  GI50: > 100 µM
  TGI: > 100 µM
EKVX NSCLC
  GI50: > 100 µM
  TGI: > 100 µM
HCC-2998 colon
  GI50: > 100 µM
  TGI: > 100 µM
HCT-116 colon
  GI50: 13.9 µM
  TGI: > 100 µM
HCT-15 colon
  GI50: 32.5 µM
  TGI: > 100 µM
HL-60(TB) leukemia
  GI50: 5.31 µM
  TGI: > 36 µM
HOP-62 NSCLC
  GI50: > 100 µM
  TGI: > 100 µM
HOP-92 NSCLC
  GI50: 8.09 µM
  TGI: > 80.9 µM
HT29 colon
  GI50: > 100 µM
  TGI: > 100 µM
IGROV1 ovarian
  GI50: > 100 µM
  TGI: > 100 µM
K-562 leukemia
  GI50: 5.18 µM
  TGI: > 100 µM
KM12 colon
  GI50: > 100 µM
  TGI: > 100 µM
LOX IMVI melanoma
  GI50: > 100 µM
  TGI: > 100 µM
M14 melanoma
  GI50: > 100 µM
  TGI: > 100 µM
MALME-3M melanoma
  GI50: > 100 µM
  TGI: > 100 µM
MCF7 breast
  GI50: 9.51 µM
  TGI: > 100 µM
MDA-MB-231 breast
  GI50: 9.94 µM
  TGI: > 100 µM
MDA-MB-435 melanoma
  GI50: > 100 µM
  TGI: > 100 µM
MDA-MB-468 breast
  GI50: 5.71 µM
  TGI: > 83.7 µM
MOLT-4 leukemia
  GI50: 3.51 µM
  TGI: > 100 µM
NCI-H226 lung
  GI50: 51.5 µM
  TGI: > 100 µM
NCI-H23 lung
  GI50: 38.5 µM
  TGI: > 100 µM
NCI-H322M lung
  GI50: > 100 µM
  TGI: > 100 µM
NCI-H460 NSCLC
  GI50: 10.5 µM
  TGI: > 100 µM
NCI-H522 lung
  GI50: 12.9 µM
  TGI: > 100 µM
NCI/ADR-RES ovarian
  GI50: 19.5 µM
  TGI: > 100 µM
OVCAR-3 ovarian
  GI50: 12.1 µM
  TGI: > 100 µM
OVCAR-4 ovarian
  GI50: 6.49 µM
  TGI: > 100 µM
OVCAR-5 ovarian
  GI50: > 100 µM
  TGI: > 100 µM
OVCAR-8 ovarian
  GI50: 11.8 µM
  TGI: > 100 µM
PC-3 prostate
  GI50: 7.27 µM
  TGI: > 100 µM
RPMI-8226 leukemia
  GI50: 3.34 µM
  TGI: 9.04 µM
RXF 393 renal
  GI50: 2.45 µM
  TGI: 11.5 µM
SF-268 CNS
  GI50: > 100 µM
  TGI: > 100 µM
SF-295 CNS
  GI50: > 100 µM
  TGI: > 100 µM
SF-539 CNS
  GI50: 20.3 µM
  TGI: > 100 µM
SK-MEL-2 melanoma
  GI50: > 100 µM
  TGI: > 100 µM
SK-MEL-28 melanoma
  GI50: > 100 µM
  TGI: > 100 µM
SK-MEL-5 melanoma
  GI50: > 29.3 µM
  TGI: > 100 µM
SK-OV-3 ovarian
  GI50: > 100 µM
  TGI: > 100 µM
SN12C renal
  GI50: > 100 µM
  TGI: > 100 µM
SNB-19 CNS
  GI50: > 100 µM
  TGI: > 100 µM
SNB-75 CNS
  GI50: 33.5 µM
  TGI: > 100 µM
SR leukemia
  GI50: 2.84 µM
  TGI: 14.9 µM
SW-620 colon
  GI50: > 90.1 µM
  TGI: > 100 µM
T-47D breast
  GI50: 6.03 µM
  TGI: > 100 µM
TK-10 renal
  GI50: > 100 µM
  TGI: > 100 µM
U251 glioblastoma
  GI50: 88.8 µM
  TGI: > 100 µM
UACC-257 melanoma
  GI50: > 100 µM
  TGI: > 100 µM
UACC-62 melanoma
  GI50: > 100 µM
  TGI: > 100 µM
UO-31 renal
  GI50: 1.94 µM
  TGI: 7.54 µM
